Earlier results as cited in patent US20020150615A1, “Injectable pharmaceutical composition comprising microdroplets of a camptothecin” (priority 2001, published 2002).

Assays:
[1] = target: human serum albumin (HSA) (Homo sapiens, UniProt P02768); settings: PBS at pH 7.4
[2] = human whole blood

human serum albumin (HSA), sequence (P02768 25-609): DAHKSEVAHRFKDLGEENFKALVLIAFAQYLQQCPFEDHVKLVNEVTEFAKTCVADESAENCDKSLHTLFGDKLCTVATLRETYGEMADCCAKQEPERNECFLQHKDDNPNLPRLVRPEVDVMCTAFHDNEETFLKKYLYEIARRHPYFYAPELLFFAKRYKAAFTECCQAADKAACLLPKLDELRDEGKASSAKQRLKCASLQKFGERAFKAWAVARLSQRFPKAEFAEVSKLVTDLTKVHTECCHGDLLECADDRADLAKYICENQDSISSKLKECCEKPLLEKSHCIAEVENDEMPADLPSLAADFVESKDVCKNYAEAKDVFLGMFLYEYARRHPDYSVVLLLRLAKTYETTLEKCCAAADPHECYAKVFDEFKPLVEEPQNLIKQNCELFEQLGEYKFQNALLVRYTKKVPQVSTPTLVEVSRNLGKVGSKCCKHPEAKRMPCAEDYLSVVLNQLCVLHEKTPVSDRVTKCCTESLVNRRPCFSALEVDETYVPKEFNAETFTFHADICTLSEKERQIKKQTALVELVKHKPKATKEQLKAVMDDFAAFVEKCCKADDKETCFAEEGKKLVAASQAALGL

## CC[C@@]1(O)C(=O)OCc2c1cc1n(c2=O)Cc2cc3ccccc3nc2-1 [camptothecin, 20(S)-camptothecin]
[1]
  affinity of the carboxylate form relative to the α-hydroxy lactone form: 150 fold
[2]
  half-life of lactone ring opening: 22 min
